Measurements from patent US20240174662A1, “SMALL MOLECULE INHIBITORS OF SALT INDUCIBLE KINASES” (Janssen Biotech, Inc., priority 2021, published 2024).

target: SIK2 (Homo sapiens (Human), UniProt Q9H0K1); test: SIK2 Enzymatic Assay Version 2 (High ATP); format: biochemical; details: 3 mM ATP and 200 μM HDAC5tide final, ADP-Glo Max luminescence
In short: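 Luminescent ADP-Glo Max read-out: depletion reagent 2 h, then detection reagent 1 h. Before the reaction, compounds were incubated 30 min with enzyme added at 6 nM (twice final concentration), with all steps at room temperature.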

Sequence of SIK2 (Q9H0K1 whole entry, species assumed): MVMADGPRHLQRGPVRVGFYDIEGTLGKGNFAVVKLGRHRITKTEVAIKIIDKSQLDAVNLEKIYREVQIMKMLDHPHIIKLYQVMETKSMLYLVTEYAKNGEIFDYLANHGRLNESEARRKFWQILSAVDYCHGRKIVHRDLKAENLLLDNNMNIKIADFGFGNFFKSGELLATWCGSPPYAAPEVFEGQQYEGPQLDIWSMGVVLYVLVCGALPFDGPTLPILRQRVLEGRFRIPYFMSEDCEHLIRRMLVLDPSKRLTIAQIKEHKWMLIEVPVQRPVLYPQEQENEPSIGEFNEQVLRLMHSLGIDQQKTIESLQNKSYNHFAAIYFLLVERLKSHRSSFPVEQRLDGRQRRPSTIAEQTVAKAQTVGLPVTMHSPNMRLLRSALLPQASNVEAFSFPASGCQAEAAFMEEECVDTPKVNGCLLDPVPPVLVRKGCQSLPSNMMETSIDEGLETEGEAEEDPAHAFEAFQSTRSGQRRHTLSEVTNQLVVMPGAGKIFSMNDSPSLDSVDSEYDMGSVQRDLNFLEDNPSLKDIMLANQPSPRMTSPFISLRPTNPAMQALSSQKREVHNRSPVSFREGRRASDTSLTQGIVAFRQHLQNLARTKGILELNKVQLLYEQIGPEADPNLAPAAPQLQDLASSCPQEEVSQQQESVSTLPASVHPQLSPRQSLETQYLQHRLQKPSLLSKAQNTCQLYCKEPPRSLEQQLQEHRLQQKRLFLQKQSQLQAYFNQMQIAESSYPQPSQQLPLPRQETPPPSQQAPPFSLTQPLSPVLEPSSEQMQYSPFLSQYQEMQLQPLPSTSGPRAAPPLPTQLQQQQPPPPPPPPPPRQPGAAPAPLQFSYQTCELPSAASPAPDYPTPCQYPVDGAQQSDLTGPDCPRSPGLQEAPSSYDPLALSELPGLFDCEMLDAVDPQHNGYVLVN

Compared with `Cc1cc(Nc2cc3cc(-c4c(O[C@@H]5CCN[C@H]5C)cnn4C)ccn3n2)nc(C)n1` [Example 298, N-(2,6-dimethylpyrimidin-4-yl)-5-[2-methyl-4-[(2S,3R)-2-methylpyrrolidin-3-yl]oxy-pyrazol-3-yl]pyrazolo[1,5-a]pyridin-2-amine], `Cc1cc(Nc2cc3cc(-c4c(OC[C@H]5C[C@H](C)CN5C)cnn4C)ccn3n2)nc(C)n1` [Example 305, N-(2,6-dimethylpyrimidin-4-yl)-5-[4-[[(2R,4S)-1,4-dimethylpyrrolidin-2-yl]methoxy]-2-methyl-pyrazol-3-yl]pyrazolo[1,5-a]pyridin-2-amine] is 2.4-fold lower in IC50: 39.2 nM for the first, 16.1 nM for the second.

First: Cc1cc(Nc2cc3cc(-c4c(OC[C@H]5OCC[C@@H]5O)cnn4C)ccn3n2)nc(C)n1 [Example 300, (2R,3S)-2-[[5-[2-[(2,6-dimethylpyrimidin-4-yl)amino]pyrazolo[1,5-a]pyridin-5-yl]-1-methyl-pyrazol-4-yl]oxymethyl]tetrahydrofuran-3-ol]
Second: Cc1cc(Nc2cc3cc(-c4c(OC[C@@H](O)C5CCC5)cnn4C)ccn3n2)nc(C)n1 [Example 302, (S)-1-cyclobutyl-2-[5-[2-[(2,6-dimethylpyrimidin-4-yl)amino]pyrazolo[1,5-a]pyridin-5-yl]-1-methyl-pyrazol-4-yl]oxy-ethanol]
The IC50 of the first is 2.6-fold lower: 10.8 nM for the first, 28.3 nM for the second.

First: Cc1cc(Nc2cc3cc(-c4c(OC[C@@H](O)C5(C)CC5)cnn4C)ccn3n2)nc(C)n1 [Example 301, (1S)-2-[5-[2-[(2,6-dimethylpyrimidin-4-yl)amino]pyrazolo[1,5-a]pyridin-5-yl]-1-methyl-pyrazol-4-yl]oxy-1-(1-methylcyclopropyl)ethanol]
Second: Cc1cc(Nc2cc3cc(-c4c(OCC(N)C5(C)CC5)cnn4C)ccn3n2)nc(C)n1 (centres unmarked) [Example 309, 5-[4-[2-amino-2-(1-methylcyclopropyl)ethoxy]-2-methyl-pyrazol-3-yl]-N-(2,6-dimethylpyrimidin-4-yl)pyrazolo[1,5-a]pyridin-2-amine]
The IC50 of the first is 5.2-fold higher: 15.2 nM for the first, 2.9 nM for the second.

First: Cc1cc(Nc2cc3cc(-c4c(OC[C@@H]5CCN5C)cnn4C)ccn3n2)nc(C(F)(F)F)n1 [Example 308, 5-[2-methyl-4-[[(2S)-1-methylazetidin-2-yl]methoxy]pyrazol-3-yl]-N-[6-methyl-2-(trifluoromethyl)pyrimidin-4-yl]pyrazolo[1,5-a]pyridin-2-amine]
Second: Cc1cc(Nc2cc3cc(-c4c(OCC(N)C56CC(C5)C6)cnn4C)ccn3n2)nc(C)n1 (centres unmarked) [Example 310, 5-[4-[2-amino-2-(3-bicyclo[1.1.1]pentanyl)ethoxy]-2-methyl-pyrazol-3-yl]-N-(2,6-dimethylpyrimidin-4-yl)pyrazolo[1,5-a]pyridin-2-amine]
The IC50 of the first is 3.8-fold higher: 15.3 nM for the first, 4 nM for the second. The second is the more potent here.

First: CCN1CC[C@@H]1COc1cnn(C)c1-c1ccn2nc(Nc3cnc(C(=O)OC)cn3)cc2c1 [Example 311, methyl 5-[[5-[4-[[(2R)-1-ethylazetidin-2-yl]methoxy]-2-methyl-pyrazol-3-yl]pyrazolo[1,5-a]pyridin-2-yl]amino]pyrazine-2-carboxylate]
Second: Cn1ncc(OC[C@H]2CCN2CC(F)(F)F)c1-c1ccn2nc(NC(=O)C3CC3)cc2c1 [Example 315, N-[5-[2-methyl-4-[[(2R)-1-(2,2,2-trifluoroethyl)azetidin-2-yl]methoxy]pyrazol-3-yl]pyrazolo[1,5-a]pyridin-2-yl]cyclopropanecarboxamide]
The IC50 of the first is 10-fold lower: 1.4 nM for the first, 14.1 nM for the second. The first is the more potent here.

`CCn1ncc(OC[C@@H]2CCNC2)c1-c1ccn2nc(NC(=O)C3CC3)cc2c1` [Example 312, N-[5-[2-ethyl-4-[[(3R)-pyrrolidin-3-yl]methoxy]pyrazol-3-yl]pyrazolo[1,5-a]pyridin-2-yl]cyclopropanecarboxamide] and `CN1CC(C)(COc2cnn(C)c2-c2ccn3nc(NC(=O)C4CC4)cc3c2)C1` [Example 314, N-[5-[4-[(1,3-dimethylazetidin-3-yl)methoxy]-2-methyl-pyrazol-3-yl]pyrazolo[1,5-a]pyridin-2-yl]cyclopropanecarboxamide] are within 1.5-fold of each other in IC50: 44.3 nM for the first, 30.4 nM for the second.

First: Cn1ncc(O[C@H]2C[C@H]3COC[C@@H](C2)N3)c1-c1ccn2nc(NC(=O)C3CC3)cc2c1 [Example 313, N-[5-[2-methyl-4-[[(1R,5S)-3-oxa-9-azabicyclo[3.3.1]nonan-7-yl]oxy]pyrazol-3-yl]pyrazolo[1,5-a]pyridin-2-yl]cyclopropanecarboxamide]
Second: Cc1onc(OC2CCNCC2)c1-c1ccn2nc(NC(=O)C3CC3)cc2c1 [Example 316, N-[5-[5-methyl-3-(4-piperidyloxy)isoxazol-4-yl]pyrazolo[1,5-a]pyridin-2-yl]cyclopropanecarboxamide]
The IC50 of the first is 1.7-fold lower: 29.6 nM for the first, 50.3 nM for the second. The first is the more potent here.

Compared with `COC1(COc2noc(C)c2-c2ccn3nc(Nc4cnccn4)cc3c2)CNC1` [Example 318, 5-[3-[(3-methoxyazetidin-3-yl)methoxy]-5-methyl-isoxazol-4-yl]-N-pyrazin-2-yl-pyrazolo[1,5-a]pyridin-2-amine], `Cc1cnc(Nc2cc3cc(-c4c(OC[C@H]5CCN5C)noc4C)ccn3n2)cn1` [Example 323, 5-[5-methyl-3-[[(2R)-1-methylazetidin-2-yl]methoxy]isoxazol-4-yl]-N-(5-methylpyrazin-2-yl)pyrazolo[1,5-a]pyridin-2-amine] is 1.9-fold higher in IC50: 13.5 nM for the first, 25.6 nM for the second.

`Cc1onc(OC[C@H]2C[C@@H](N)C2)c1-c1ccn2nc(NC(=O)C3CC3)cc2c1` [Example 319, N-[5-[3-[(3-aminocyclobutyl)methoxy]-5-methyl-isoxazol-4-yl]pyrazolo[1,5-a]pyridin-2-yl]cyclopropanecarboxamide] and `Cc1onc(OC[C@H]2N(C)CC2(C)C)c1-c1ccn2nc(NC(=O)C3CC3)cc2c1` [Example 321, N-[5-[5-methyl-3-[[(2S)-1,3,3-trimethylazetidin-2-yl]methoxy]isoxazol-4-yl]pyrazolo[1,5-a]pyridin-2-yl]cyclopropanecarboxamide] are within 1.5-fold of each other in IC50: 51.8 nM for the first, 52.6 nM for the second.

`Cc1cc(Nc2cc3cc(-c4c(OC[C@H]5CCN5)noc4C)ccn3n2)nc(C)n1` [Example 320, 5-[3-[[(2R)-azetidin-2-yl]methoxy]-5-methyl-isoxazol-4-yl]-N-(2,6-dimethylpyrimidin-4-yl)pyrazolo[1,5-a]pyridin-2-amine] and `Cc1cnc(Nc2cc3cc(-c4c(O[C@@H]5CN[C@H](C)C5)noc4C)ccn3n2)cn1` [Example 322, 5-[5-methyl-3-[(3S,5R)-5-methylpyrrolidin-3-yl]oxy-isoxazol-4-yl]-N-(5-methylpyrazin-2-yl)pyrazolo[1,5-a]pyridin-2-amine] are within 1.5-fold of each other in IC50: 50.8 nM for the first, 46.3 nM for the second.

First: Cc1onc(OC[C@H](c2ccccc2F)N(C)C)c1-c1ccn2nc(NC(=O)C3CC3)cc2c1 [Example 324, N-[5-[3-[(2S)-2-(dimethylamino)-2-(2-fluorophenyl)ethoxy]-5-methyl-isoxazol-4-yl]pyrazolo[1,5-a]pyridin-2-yl]cyclopropanecarboxamide]
Second: Cc1onc(OC[C@H](c2ccccn2)N(C)C)c1-c1ccn2nc(NC(=O)C3CC3)cc2c1 [Example 325, N-[5-[3-[(2S)-2-(dimethylamino)-2-(2-pyridyl)ethoxy]-5-methyl-isoxazol-4-yl]pyrazolo[1,5-a]pyridin-2-yl]cyclopropanecarboxamide]
The IC50 of the first is 2.7-fold lower: 23.8 nM for the first, 63.2 nM for the second.

In the case of `Cc1onc(OC[C@](C)(N)c2ccccc2)c1-c1ccn2nc(NC(=O)C3CC3)cc2c1` [Example 326, N-[5-[3-[(2R)-2-amino-2-phenyl-propoxy]-5-methyl-isoxazol-4-yl]pyrazolo[1,5-a]pyridin-2-yl]cyclopropanecarboxamide], the IC50 is reported as 60 nM.
